Experimental findings from patent US20240374590A1, “COMPOSITIONS AND METHODS FOR TREATING CANCER” (A2A PHARMACEUTICALS, INC., priority 2021, published 2024) are described below.

The test system of assay [1] is JIMT-1 human breast cancer cell line. Briefly: Cell viability assay (SRB) in JIMT-1. Type of assay: cell-based. Conditions: 72 hours after treatment, read-out: JIMT1 IC50. As for the experimental part: (§1) Human colon carcinoma cell line HCT-116 was a kind gift from Igor Ronninson from University of South Caroli, Columbia, USA. Human breast cancer cell line, JIMT-1 was kindly provided by Ali Osmay Güre from Bilkent University, Ankara, Turkey. Cells were cultured in Dulbecco's modified Eagle's medium (Lonza, NJ, USA), supplemented with 10% fetal bovine serum (FBS, Lonza), 1% non-essential amino acid (NEAA), 2 mM L-glutamine (Sigma Aldrich, MO, USA) and 50 U/ml penicillin/streptomycin (P/S). HCT-116 cells were cultured in McCoy's 5A (modified) (Gibco) medium supplemented with FBS, NEAA, L-glutamine and P/S. All cell lines were tested regularly using MycoAlert Mycoplasma Detection Kit (Lonza). The cumulative length of the cells between thawing and use in the experiments was less than 20 passages.
(§2) Newly synthesized molecules were dissolved in 100% DMSO to yield a stock concentration of 10 mM. For cell viability assay, JIMT-1 (3×10^3 cells/well) and HCT-116 (4×10^3), cells were seeded into 96-well plates, and 24 hours after cell seeding inhibitor treatments were performed at different concentrations. Cell viability was measured 72 hours after treatment with Sulforhodamine B (SRB, Sigma Aldrich) assay as recommended by the manufacturer.

Assay [2] relates to HCT-116 human colon carcinoma cell line. Description: Cell viability assay (SRB) in HCT-116. Conditions: 72 hours after treatment, read-out: HCT116 IC50. Format: cell-based. The method, then: as §1, §2

As to `COc1ccc(-c2cc(Nc3ccnc(N4CCCC4C)n3)[nH]n2)c(F)c1` (centres unmarked) [Compound 159, N-(3-(2-fluoro-4-methoxyphenyl)-1H-pyrazol-5-yl)-2-(2-methylpyrrolidin-1-yl)pyrimidin-4-amine], the IC50 (commonly the concentration that inhibits the measured activity by half) worked out at 47 nM in assay [1] and 76 nM in assay [2].

For the molecule `COc1ccc(-c2cc(Nc3ccnc(N4C[C@@H](C)O[C@@H](C)C4)n3)[nH]n2)cc1C(F)(F)F` [Compound 207, 2-((2R,6S)-2,6-dimethylmorpholino)-N-(3-(4-methoxy-3-(trifluoromethyl)phenyl)-1H-pyrazol-5-yl)pyrimidin-4-amine], the IC50 in assay [1] was found to be 974 nM; in assay [2] it was 5530 nM.

Turning to `COc1ccc(-c2cc(Nc3ccnc(N4CCC5(CCC5)CC4)n3)[nH]n2)c(F)c1` [Compound 142, N-(3-(2-fluoro-4-methoxyphenyl)-1H-pyrazol-5-yl)-2-(7-azaspiro[3.5]nonan-7-yl)pyrimidin-4-amine], the results for the IC50 in assay [1] and in assay [2] were 266 nM and 1210 nM, respectively.

Regarding `COc1ccc(-c2cc(Nc3ccnc(N4CCCCC4)n3)[nH]n2)c(F)c1` [Compound 152, N-(3-(2-fluoro-4-methoxyphenyl)-1H-pyrazol-5-yl)-2-(piperidin-1-yl)pyrimidin-4-amine], the IC50 in assay [1] came out at 5 nM; in assay [2], 11 nM.

As for `COc1ccc(-c2cc(Nc3ccnc(N4CCOCC4)n3)[nH]n2)c(F)c1` [Compound 56, N-(3-(2-fluoro-4-methoxyphenyl)-1H-pyrazol-5-yl)-2-morpholinopyrimidin-4-amine], the values for the IC50 in assay [1] and in assay [2] were 23 nM and 36 nM, respectively.

For the molecule `COc1ccc(-c2cc(Nc3ccnc(N4CCOCC4)n3)n(C)n2)cc1` [Compound 184, N-(3-(4-methoxyphenyl)-1-methyl-1H-pyrazol-5-yl)-2-morpholinopyrimidin-4-amine], the half-maximal inhibitory concentration (IC50) in assay [1] was 8790 nM; in assay [2] it was 20000 nM.

For `CC1COCCN1c1ncc(F)c(Nc2cc(-c3ccc(OC(F)F)cc3)n[nH]2)n1` (centres unmarked) [Compound 291, N-(3-(4-(difluoromethoxy)phenyl)-1H-pyrazol-5-yl)-5-fluoro-2-(3-methylmorpholino)pyrimidin-4-amine], the IC50 in assay [1] is 777 nM; in assay [2], 1710 nM.

Turning to `C[C@@H]1CN(c2nccc(Nc3cc(-c4ccc5c(c4)CCC5)[nH]n3)n2)C[C@H](C)O1` [Compound 211, N-(5-(2,3-dihydro-1H-inden-5-yl)-1H-pyrazol-3-yl)-2-((2R,6S)-2,6-dimethylmorpholino)pyrimidin-4-amine], the IC50 was found to be 43 nM in assay [1] and 39 nM in assay [2].

Take `COc1ccc(-c2cc(Nc3ccnc(N4CC5(COC5)C4)n3)[nH]n2)c(F)c1` [Compound 146, N-(3-(2-fluoro-4-methoxyphenyl)-1H-pyrazol-5-yl)-2-(2-oxa-6-azaspiro[3.3]heptan-6-yl)pyrimidin-4-amine]: the IC50 was determined as 479 nM in assay [1] and 534 nM in assay [2].

Turning to `COc1ccc(-c2cc(Nc3ccnc(N4CCOC(C(F)(F)F)C4)n3)[nH]n2)c(F)c1` (centres unmarked) [Compound 139, N-(3-(2-fluoro-4-methoxyphenyl)-1H-pyrazol-5-yl)-2-(2-(trifluoromethyl)morpholino)pyrimidin-4-amine], the IC50 was determined as 91 nM in assay [1] and 146 nM in assay [2].

As to `COc1ccc(-c2cc(Nc3ccnc(N4C5CCC4CC(C)C5)n3)[nH]n2)c(F)c1` (centres unmarked) [Compound 145, N-(3-(2-fluoro-4-methoxyphenyl)-1H-pyrazol-5-yl)-2-(3-methyl-8-azabicyclo[3.2.1]octan-8-yl)pyrimidin-4-amine], the IC50 in assay [1] was found to be 101 nM; in assay [2], 279 nM.

For the molecule `COc1ccc(-c2cc(Nc3ccnc(N4CC(C)(C)OC(C)(C)C4)n3)[nH]n2)c(F)c1` [Compound 133, N-(3-(2-fluoro-4-methoxyphenyl)-1H-pyrazol-5-yl)-2-(2,2,6,6-tetramethylmorpholino)pyrimidin-4-amine], the figures for the IC50 in assay [1] and in assay [2] were 606 nM and 6560 nM, respectively.

With `CC1(F)CN(c2nccc(Nc3cc(-c4ccc(OC(F)F)cc4)n[nH]3)n2)C1` [Compound 248, N-(3-(4-(difluoromethoxy)phenyl)-1H-pyrazol-5-yl)-2-(3-fluoro-3-methylazetidin-1-yl)pyrimidin-4-amine], the figures for the IC50 in assay [1] and in assay [2] were 1560 nM and at least 10000 nM, respectively.

Regarding `COc1ccc(-c2cc(Nc3ccnc(N4CCC(C(F)(F)F)CC4)n3)[nH]n2)c(F)c1` [Compound 132, N-(3-(2-fluoro-4-methoxyphenyl)-1H-pyrazol-5-yl)-2-(4-(trifluoromethyl)piperidin-1-yl)pyrimidin-4-amine], the half-maximal inhibitory concentration (IC50) in assay [1] came out at 18 nM; in assay [2], 38 nM.

Regarding `Fc1cnc(N2CCC2)nc1Nc1cc(-c2ccc(OC(F)F)cc2)n[nH]1` [Compound 289, 2-(azetidin-1-yl)-N-(3-(4-(difluoromethoxy)phenyl)-1H-pyrazol-5-yl)-5-fluoropyrimidin-4-amine], the figures for the IC50 in assay [1] and in assay [2] were 180 nM and 371 nM, respectively.

With `COc1ccc(-c2cc(Nc3ccnc(C4=CCOCC4)n3)[nH]n2)c(F)c1` [Compound 317, 2-(3,6-dihydro-2H-pyran-4-yl)-N-(3-(2-fluoro-4-methoxyphenyl)-1H-pyrazol-5-yl)pyrimidin-4-amine], the results for the IC50 in assay [1] and in assay [2] were 12 nM and 24 nM, respectively.

For the molecule `CC1COCC(C)N1c1ncc(F)c(Nc2cc(-c3ccc(OC(F)F)cc3)n[nH]2)n1` (centres unmarked) [Compound 286, N-(3-(4-(difluoromethoxy)phenyl)-1H-pyrazol-5-yl)-2-(3,5-dimethylmorpholino)-5-fluoropyrimidin-4-amine], the IC50 in assay [1] came to 1680 nM; in assay [2], 5220 nM.

For `COc1ccc(-c2cc(Nc3ccnc(N4CCOC(C(F)(F)F)C4)n3)[nH]n2)cc1F` (centres unmarked) [Compound 96, N-(3-(3-fluoro-4-methoxyphenyl)-1H-pyrazol-5-yl)-2-(2-(trifluoromethyl)morpholino)pyrimidin-4-amine], the IC50 in assay [1] amounted to 47 nM; in assay [2] it was 89 nM.

Consider `C[C@@H]1CN(c2ncnc(Nc3cc(-c4ccc(OC(F)F)cc4)n[nH]3)n2)C[C@H](C)O1` [Compound 310, N-(3-(4-(difluoromethoxy)phenyl)-1H-pyrazol-5-yl)-4-((2R,6S)-2,6-dimethylmorpholino)-1,3,5-triazin-2-amine], for which the IC50 in assay [1] was determined as 2350 nM; in assay [2], 2960 nM.

With `COc1ccc(-c2cc(Nc3ccnc(N4CCC(C(F)(F)F)CC4)n3)[nH]n2)cc1` [Compound 70, N-(3-(4-methoxyphenyl)-1H-pyrazol-5-yl)-2-(4-(trifluoromethyl)piperidin-1-yl)pyrimidin-4-amine], the IC50 in assay [1] is 26 nM; in assay [2], 28 nM.

In the case of `FC1CN(c2nccc(Nc3cc(-c4ccc(OC(F)F)cc4)n[nH]3)n2)C1` [Compound 246, N-(3-(4-(difluoromethoxy)phenyl)-1H-pyrazol-5-yl)-2-(3-fluoroazetidin-1-yl)pyrimidin-4-amine], the IC50 in assay [1] was 71 nM; in assay [2] it was at least 10000 nM.

Regarding `C[C@@H]1CN(c2nccc(Nc3cc(-c4ccc(C(F)F)cc4)n[nH]3)n2)C[C@H](C)O1` [Compound 202, N-(3-(4-(difluoromethyl)phenyl)-1H-pyrazol-5-yl)-2-((2R,6S)-2,6-dimethylmorpholino)pyrimidin-4-amine], the values for the IC50 in assay [1] and in assay [2] were 187 nM and 722 nM, respectively.

Consider `C[C@@H]1CN(c2nccc(N(C)c3cc(-c4ccc(OCF)cc4)n[nH]3)n2)C[C@H](C)O1` [Compound 277, 2-((2R,6S)-2,6-dimethylmorpholino)-N-(3-(4-(fluoromethoxy)phenyl)-1H-pyrazol-5-yl)-N-methylpyrimidin-4-amine], for which the figures for the IC50 in assay [1] and in assay [2] were 204 nM and 269 nM, respectively.

As to `C[C@H]1CN(c2ncc(F)c(Nc3cc(-c4ccc(OC(F)F)cc4)n[nH]3)n2)C[C@H](C)O1` [Compound 293, N-(3-(4-(difluoromethoxy)phenyl)-1H-pyrazol-5-yl)-2-((2S,6S)-2,6-dimethylmorpholino)-5-fluoropyrimidin-4-amine], the half-inhibitory concentration (IC50) amounted to 255 nM in assay [1] and 332 nM in assay [2].

For the molecule `FC(F)Oc1ccc(-c2cc(Nc3ccnc(N4C5CCC4COC5)n3)[nH]n2)cc1` [Compound 259, 2-(3-oxa-8-azabicyclo[3.2.1]octan-8-yl)-N-(3-(4-(difluoromethoxy)phenyl)-1H-pyrazol-5-yl)pyrimidin-4-amine], the results for the IC50 in assay [1] and in assay [2] were 65 nM and at least 10000 nM, respectively.

With `FC(F)Oc1ccc(-c2cc(Nc3ccnc(N4C[C@@H]5C[C@H]4CO5)n3)[nH]n2)cc1` [Compound 261, 2-((1S,4S)-2-oxa-5-azabicyclo[2.2.1]heptan-5-yl)-N-(3-(4-(difluoromethoxy)phenyl)-1H-pyrazol-5-yl)pyrimidin-4-amine], the values for the IC50 in assay [1] and in assay [2] were 400 nM and 7200 nM, respectively.

Regarding `CC1COCCN1c1nccc(Nc2cc(-c3ccc(OC(F)F)cc3)n[nH]2)n1` (centres unmarked) [Compound 229, N-(3-(4-(difluoromethoxy)phenyl)-1H-pyrazol-5-yl)-2-(3-methylmorpholino)pyrimidin-4-amine], the values for the IC50 in assay [1] and in assay [2] were 96 nM and 62 nM, respectively.

As to `C[C@@H]1CN(c2nccc(Nc3cc(-c4ccc5c(ccn5C)c4)n[nH]3)n2)C[C@H](C)O1` [Compound 217, 2-((2R,6S)-2,6-dimethylmorpholino)-N-(3-(1-methyl-1H-indol-5-yl)-1H-pyrazol-5-yl)pyrimidin-4-amine], the results for the IC50 in assay [1] and in assay [2] were 6 nM and 5 nM, respectively.
